Test results taken from paper PMC8279416, “Structural Fine-Tuning of Desmuramylpeptide NOD2 Agonists Defines Their In Vivo Adjuvant Activity” (Journal of Medicinal Chemistry, 2021).

Tests used:
[1] = system: CD8+ T cells (OT I) cocultured with BMDCs; assay: BMDC antigen cross-presentation assay with ovalbumin-specific CD8+ T cells; format: cell-based, mouse; details: ovalbumin 50 μg/mL, 72 h coculture
Description: To evaluate the adjuvant potential of the two most-promising desmuramylpeptides, 68 and 75, in terms of their effects on DC-mediated activation of CD4^+ and CD8^+ T cells, we used an in vitro antigen-presentation assay with C57BL/6 mouse bone-marrow-derived DCs (BMDCs). Following stimulation with 68 and 75 (1 or 10 μM) in the presence of ovalbumin soluble protein (50 μg/mL), BMDCs were cocultured with carboxyfluorescein succinimidyl ester (CFSE)-labeled naive ovalbumin-specific CD4^+ or CD8^+ T cells, which were isolated from splenocytes of OT II and OT I transgenic mice, respectively. After 3 days of coculture, CD25 (α subunit of IL-2 receptor)[108] expression was determined, along with the CFSE dilution, as markers of T-cell activation and proliferation, respectively. Furthermore, we also examined how this desmuramylpeptide-induced priming of T cells affected the secreted cytokine profiles in BMDC/T-cell cocultures.
CD4^+ and CD8^+ T cells were purified from splenocytes of OT II and OT I transgenic mice using CD4^+ and CD8^+ T cell isolation kits (Miltenyi Biotec, Germany), according to manufacturer instructions. […] Live Thy1.2^+/CD4^+ and Thy1.2^+/CD8^+ were evaluated for CFSE dilution and CD25 expression. […] Statistical significance was determined by one-way ANOVA followed by Dunnett’s multiple comparisons test.

NIH/OlaHsd mice = assay: In vivo ovalbumin-specific antibody response, second experiment (neutral, anionic, mannosylated liposomes); design: species or system mouse; details: for Log10 (anti-OVA IgG1/anti-OVA IgG2a): second in vivo experiment, 0.15 μmol adjuvant, one week after second booster, mean ± SEM of 5 mice
Description: To determine whether the adjuvanticity of 75 can be modulated through changes to the liposomal formulation, a second in vivo experiment was designed in which the adjuvant activities of three different liposomal compositions were compared. Neutral liposomes were prepared from egg phosphatidylcholine and cholesterol.
Multilamellar liposomes were prepared by the modified thin lipid film method as described previously.[130],[131] For the preparation of neutral liposomes, a 7:5 molar ratio of egg-phosphatidylcholine and cholesterol was used. For the preparation of negatively charged liposomes, a 7:5:1 molar ratio of egg-phosphatidylcholine, cholesterol, and dicetylphosphate was used, while a 7:5:0.5 molar ratio of egg-phosphatidylcholine, cholesterol, and Man-PEG-Pam was used in the preparation of mannosylated liposomes. Lipids (total lipid concentration, 4 mg/mL) were dissolved in chloroform/methanol (2:1). A methanol or chloroform/methanol solution of MDP or the desmuramylpeptides was added to the lipid solution for a final concentration of 2 mM and 1.5 mM for the first (Figure 10) and second (Figure 11) experiments, respectively. After rotary evaporation of the solvent, the remaining lipid film was dried in vacuum for 1 h and then dispersed by gentle handshaking in an ovalbumin solution in saline (0.0667 and 0.1 mg/mL for the first and second experiments, respectively). This was then left overnight at 4 °C to swell and stabilize. Liposome size was reduced by sonification. Nonentrapped material was not separated from liposomes, and the complete liposome suspension was used for immunizations.
For the first experiment (Figure 10), sex-matched NIH/OlaHsd mice (five per group) were immunized subcutaneously in the tail base and boosted one time after 21 days. The injection volume in all experimental groups was 0.15 mL per mouse, which corresponds to 10 μg of OVA, […], and 0.30 μmol of MDP and desmuramylpeptides. For the second experiment (Figure 11), sex-matched NIH/OlaHsd mice (five per group) were immunized and boosted two times subcutaneously into the tail base at 21-day intervals. The injection volume in all experimental groups was 0.1 mL per mouse, which corresponds to 10 μg of OVA, 400 μg of lipids, and 0.15 μmol of MDP and 75. The mice were anesthetized with ip application of ketamine/xylazine (25 mg/kg each) prior to blood collection from the axillary plexus on the seventh day after the last booster dose. Individual serum from each animal was decomplemented at 56 °C for 30 min and then stored at −20 °C until tested.
ELISA assays were performed as detailed previously.[46] Briefly, high-binding ELISA plates (Costar, U.S.A.) were coated with a 15 μg/mL solution of ovalbumin in carbonate buffer, pH 9.6, and incubated overnight at room temperature. Nonspecific antibody binding was blocked with 0.5% w/v bovine serum albumin in PBS-T (0.05% (v/v) Tween 20 in phosphate-buffered saline) for 2 h at 37 °C. After washing, five serial dilutions of mice sera and standard preparations were added in duplicate. Plates were incubated overnight at room temperature, washed, and analyzed for ovalbumin-specific IgG levels by incubation with HRP-conjugated goat anti-mouse IgG (2 h at 37 °C) and then, after washing, with 0.6 mg/mL o-phenylenediaminedihydrochloride solution in citrate-phosphate buffer, pH 5.0, with 0.5 μL of 30% H2O2 per milliliter for 30 min at room temperature in the dark. The enzymatic reaction was stopped with 12.5% H2SO4, and absorbance at 492 nm was measured using a microplate reader (Thermo Fisher Scientific, Waltham, MA, U.S.A.). For the determination of ovalbumin-specific IgG1 and IgG2a, the plates were incubated with biotin-conjugated rat anti-mouse IgG1 or IgG2a (2 h at 37 °C) and subsequently with streptavidin–peroxidase for another 2 h at 37 °C. After washing, the substrate solution was added and incubated for 30 min at room temperature in the dark, as described above. […]

SMILES | BMDC processing and cross-presentation of ovalbumin to CD8+ T cells [1] | Ovalbumin-specific IgG2a response (in words) (NIH/OlaHsd mice; mannosylated liposomes, 0.15 μmol adjuvant per dose) | Ovalbumin-specific IgG1 response (in words) (NIH/OlaHsd mice; negatively charged liposomes, 0.15 μmol adjuvant per dose) | Ovalbumin-specific IgG levels compared to controls without adjuvant (in words) (NIH/OlaHsd mice; regardless of the liposomal composition) | Log10 (anti-OVA IgG1/anti-OVA IgG2a) (NIH/OlaHsd mice; anionic liposomes) | Log10 (anti-OVA IgG1/anti-OVA IgG2a) (NIH/OlaHsd mice; mannosylated liposomes) | Log10 (anti-OVA IgG1/anti-OVA IgG2a) (NIH/OlaHsd mice; neutral liposomes)
COc1cc(/C=C/C(=O)NCC(=O)N[C@H](C(=O)N[C@H](CCC(=O)OC2CCCC2)C(=O)OC2CCCC2)C(C)C)ccc1O [Compound 68, Dicyclopentyl ((E)-3-(4-Hydroxy-3-methoxyphenyl)acryloyl)glycyl-L-valyl-D-glutamate] | significantly increased | – | – | – | – | – | –
CCCCCCCCCCCCCCCCCC(=O)Oc1ccc(/C=C/C(=O)NCC(=O)N[C@H](C(=O)N[C@H](CCC(=O)OCC)C(=O)OCC)C(C)C)cc1OC [Compound 75, Diethyl ((E)-3-(3-Methoxy-4-(stearoyloxy)phenyl)acryloyl)glycyl-L-valyl-D-glutamate] | – | enhanced the production of IgG2a antibodies | diminished IgG1 activity | increased the levels of IgG antibodies | 1.84 ± 0.20 | 2.15 ± 0.17 | 2.27 ± 0.17
